Consider one compound from patent EP2769974A1, “Novel AMPK activator” (Debiopharm S.A., priority 2013, dated 2014).

For experiment [1], the system named is β1-containing heterotrimers of human recombinant AMPK. Nature of the experiment: AMPK activation assay (phosphorylation of ACC1/1-120 at ser79, AlphaScreen), β1-containing heterotrimers. Format: biochemical. The note with it: two β1-containing heterotrimers; 100 µM ATP, room temperature, 60 minutes. On the procedure: (§1) The compound of formula (I) was assayed in vitro to determine its EC50 against four different AMPK heterotrimers (two containing the β1 subunit and two containing the β2 subunit). AMPK activity was measured by the phosphorylation of the amino-terminal fragment of human acetyl CoA carboxylase-type 1, amino acids 1-120 (ACC1/1-120), at ser79. The fragment was expressed as a biotinylated fusion protein in E.coli. Human rAMPK genes were expressed in insect cells using baculovirus vectors or in the monkey COS7 cell expression systems. The compound was tested in triplicate at each of the following concentrations (µM): 45, 15, 5, 1.67, 0.56, 0.185, 0.06, 0.02 and 0.00685. A positive control comprising AMP (100 uM), and a negative control without enzyme, were used. The enzyme assay was conducted in a 5 µl reaction mixture containing compound of formula (I) at the indicated concentrations in 80 mM HEPES, pH7.0, 160 mM NaCl, 2.5 mM MgCl2, 1mM DTT, 0.05% Tween-20, 100 µM ATP with AMPK at 0.08 ng/µl and ACC1/1-120 at 0.004 ng/µl. […] The reaction mixture was further incubated overnight at RT and analyzed on a Perkin EImer Fusion-Alpha microplate analyzer. The AlphaScreen readout for this assay is based on an excitation with laser-stimulated visible light at 680 nm and emission at 520-620 nm.
In general terms: Bead proximity is the source of the signal in Alpha formats.

Experiment [2] relates to HFD mice. Nature of the experiment: Hepatic lipids in HFD mice. The experiment is classed as in vivo. The note with it: orally 60 mg/Kg twice daily for 40 days, to near control chow values. As to the method: Six-week-old male C57BI/6 mice were fed a high-fat diet or chow diet for 3 months. Then, HFD mice were treated orally with vehicle (Control HFD) or compound of formula (I) at 60 mg/Kg twice daily for 40 days. Chow fed mice were treated orally with vehicle alone (Control CD). At completion of this treatment period, mice were sacrificed and liver collected for determination of triglycerides, cholesterol and free fatty acids (FFA) content. Commercial kits were used to measure the levels of hepatic cholesterol (cholesterol RTU, Biomerieux), triglyceride (TG) (triglyceride PAP 150, Biomerieux), and fatty acid (NEFA-HR (2), Wako Chemicals) levels from liver homogenate. Results were then normalized to the weight of the sample.

For experiment [3], the system named is HFD mice. As to the kind of experiment: Hepatic glucose production in HFD mice (hyperinsulinemic-euglycemic clamp). The experiment is classed as in vivo. As to conditions: for hepatic glucose production: orally 60 mg/kg twice daily for 40 days, under insulin stimulated states, p < 0.001 vs Control HFD, 60 mg/kg. On the procedure:
Six-week-old male C57BI/6 mice were fed a high-fat diet or chow diet for 3 months. Then, HFD mice were treated orally with vehicle (Control HFD) or compound of formula (I) at 60 mg/kg twice daily for 40 days. Chow fed mice were treated orally with vehicle alone (Control CD). Hepatic glucose production was assessed during a hyperinsulinemic-euglycemic clamp using a 12 mU/kg/min insulin infusion rate. Hyperinsulinemic-euglycemic clamps were performed in chronically cannulated awake free moving mice. Before the start of the clamp procedure mice were fasted for 6 hours. ^3H-glucose alone was then infused for 210 minutes to assess the basal whole body glucose turnover (= hepatic glucose output). The basal procedure started with D-[3-3H]glucose, which was infused (2µL/min, 30µCi/min/kg) for 90 minutes (time -60 to time 30 minutes). An euglycemic hyperinsulinemic 1 step insulin clamp was then performed from 30 minutes to 150 minutes, with a 12mU/kg/min insulin infusion. Glucose (16.5%) infusion rate was adjusted until steady-state blood glucose (120 mg/dL, ± 10 mg/dL) was achieved. Calculations for glucose turnover measurements were made from parameters obtained during the last 60 min of the infusions in steady-state condition, Briefly, the D-[3-3H]glucose-specific activity was calculated by dividing the D-[3-3H]glucose enrichment by the plasma glucose concentration. The whole-body glucose turnover rate was calculated by dividing the rate of D-[3-3H]glucose by the D-[3-3H]glucose plasma-specific activity. For each mouse, the mean values were calculated and averaged with values from mice of the same group.

Experiment [4] relates to β2-containing heterotrimers of human recombinant AMPK. As to the kind of experiment: AMPK activation assay (phosphorylation of ACC1/1-120 at ser79, AlphaScreen), β2-containing heterotrimers. Format: biochemical. The note with it: two β2-containing heterotrimers; 100 µM ATP, room temperature, 60 minutes. On the procedure:
as §1

Experiment [5] deals with high-fat diet-fed (HFD) mice. Nature of the experiment: Fasting plasma glycemia and insulin sensitivity in high-fat diet-fed (HFD) mice. The experiment is classed as in vivo. On the procedure:
Six-week-old male C57BI/6 mice were fed a high-fat diet or chow diet for 3 months. Then, HFD mice were treated orally with vehicle (Control HFD) or compound of formula (I) at 60 mg/kg twice daily for 4 weeks. Chow fed mice were treated orally with vehicle alone (Control CD). At completion of this treatment period, mice were fasted for 6 hours and blood glucose levels were assessed with a blood glucosemeter from blood samples collected from the tip of the tail vein.

In another experiment the test system is HFD hamster. As to the kind of experiment: Circulating lipids (FPLC lipoprotein profile) and insulin sensitivity in HFD hamster. Format: in vivo. As to the method: Hamsters were fed a control chow diet with normal drinking water or high fat diet with 10% fructose drinking water over 30 days. After 16 days of high-fat diet, two groups of hamsters were treated orally with either vehicle (control HFD) or Compound of formula (I) twice daily for 14 days. Hamsters fed the chow diet were also treated orally for 14 days with vehicle BID (control CD). After the treatment period, hamsters were overnight fasted, blood samples were obtained from the retroorbital plexus. Plasma was immediately isolated by centrifugation and for each group, a 400 µL pool of plasma was made from the individual plasma samples. Lipoproteins were separated by fast performance liquid chromatography (FPLC). FPLC fractions were monitored for cholesterol levels.

Setting [6] is: HFD hamsters, orally twice daily for 14 days, FPLC of pooled plasma.

The structures appear in SMILES notation. Where only a bound is given, the exact number is not on record here.

By EC50 is commonly meant the concentration at which the effect is half-maximal. For the compound `O=C(O)c1c[nH]c2ccc(-c3ccc(-c4c(O)cccc4O)cc3)cc12` [compound of formula (I), 5-(2',6'-dihydroxy-biphenyl-4-yl)-1H-indole-3-carboxylic acid], the EC50 in experiment [1] is under 500 nM; in experiment [4], under 5000 nM. In addition, in the experiment on HFD mice [2], the liver lipids content result was “reduced”. Further, the “decrease of hepatic glucose production” value in the experiment on HFD mice [3] (orally 60 mg/kg twice a day, basal state) is listed as “at least 34%”. The results for the hepatic glucose production result with HFD mice [3] and in the experiment on HFD mice [3] (listed as Compound of formula (I)) were “normalized” and “blunted”, respectively. In addition, the “decrease of fasting plasma glycemia” value in experiment [5] (orally 60 mg/kg twice a day) is “at least 17%”. The blood glucose entry in experiment [5] (orally 60 mg/kg twice daily for 4 weeks, fasted for 6 hours, p <0.05 vs Control HFD) is listed as “significantly decreased”. Further, the “HOMA-IR decrease (insulin sensitivity)” value in experiment [5] (results not shown) is 43%; in the experiment on HFD hamster (HFD hamster, results not shown), 37%. For the same compound, the “HDL total cholesterol levels” value with HFD hamster (setting [6]) is “increased”. In the experiment with HFD hamster (setting [6]), the “LDL total cholesterol levels” value is “reduced”. Moreover, in the experiment with HFD hamster (setting [6]), the “VLDL total cholesterol levels” value is “reduced”.
